# Test results published in patent publication US20240315993A1, “ANTIPARASITIC COMPOUNDS” (Intervet Inc., priority 2021, published 2024).
# Tests used:
# [1] = test system: bed bugs (Cimex lectularius); assay: Guinea pig - efficacy against bed bug; assay type: in vivo
# How it was run: (§1)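 Guinea pigs given 5 mg/kg test compound orally (gavage) or s.c. in 10% DMF/emulsifier plus 90% water for injection, with local co-infestations of Ornithodoros moubata juveniles and Cimex lectularius at several post-treatment times. Engorged parasites scored dead/damaged about 24 h after collection; % inhibition versus pretreatment baseline by modified Schneider-Orelli formula.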
# [2] = test system: juvenile soft ticks (Ornithodoros moubata); assay: Guinea pig - efficacy against argaside tick; assay type: in vivo
# How it was run: as §1
# [3] = test system: Adult fleas (Ctenocephalides felis); assay: Flea feeding assay; conditions: 1 ppm in blood, ~48 h membrane feeding, read-out: flea inhibition (% of dead+damaged fleas)
# Experimental: Adult fleas (Ctenocephalides felis) of defined age were fed on artificial membranes with blood spiked with declining concentrations of a test compound (dissolved in a DMSO-emulsifier-blood mixture). After approximately 48 hours of continuous feeding, flea inhibition (i.e., % of dead+damaged fleas per test concentration) was assessed. The vitality of used parasites was confirmed in negative control groups (i.e., an untreated control and a solvent control).
# Lepeophtheirus salmonis [4] = assay: Salmon - in vivo efficacy against sea lice using gavage administration; conditions: 5 mg/kg once by gavage, counted around day 28; for therapeutic efficacy against juvenile sea lice (% reduction vs control): day -3 infestation
# How it was run: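 Salmon given a single oral gavage of 5 mg/kg in 5% DMSO/95% fish oil on day 0, with vehicle controls. L. salmonis copepodid infestations around days −28, −3 and 17; lice counted by stage around day 28, efficacy as % reduction versus control by Abbott's formula.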
# [5] = test system: Rhipicephalus microplus tick larvae; assay: Tick larvae contact assay; conditions: ~3 min immersion, assessed ~24 h after, read-out: Tick inhibition (% of damage+dead ticks)
# Experimental: Tick larvae (Rhipicephalus microplus) were immersed for approximately 3 minutes in declining concentrations of a test compound (dissolved in a DMSO-emulsifier-deionized water mixture). Tick inhibition (% of damage+dead ticks per test concentration) was assessed approximately 24 hours after contact exposure. The vitality of used parasites was confirmed in negative control groups (i.e. an untreated control and a solvent control).
# Lepeophtheirus salmonis [6] = assay: Salmon - in vivo efficacy against sea lice using gavage administration; conditions: po, 168 h, read-out: therapeutic efficacy against (pre-)adult sea lice (% reduction vs control), salmon, 5 mg/kg once by gavage, day -28 infestation, counted day 7
# [7] = test system: Copepodids (juvenile sea lice stage of Lepeophtheirus salmonis); assay: Juvenile sea lice contact assay; conditions: Lepeophtheirus salmonis, ~24 h, read-out: Sea lice inhibition (% of dead+damaged copepodids); for inhibition at 0.01 µM: 10 nM in seawater
# Experimental: Copepodids (juvenile sea lice stage of Lepeophtheirus salmonis) were exposed to seawater spiked with declining concentrations of a test compound (dissolved in a DMSO sea-water mixture). Sea lice inhibition (% of dead+damaged copepodids) was assessed after approximately 24 hours of continuous exposure. The vitality of used parasites was confirmed in a negative (solvent) control group.
# [8] = test system: Mobile stages of sea lice (pre-adults, adults of Lepeophtheirus salmonis); assay: Adult sea lice contact assay; conditions: pre-adults/adults, assessed after ~1 and 24 h, read-out: EC50 (sea lice inhibition, dead+damaged)
# Experimental: Mobile stages of sea lice (i.e., pre-adults, adults of Lepeophtheirus salmonis) were exposed to seawater spiked with declining concentrations of a test compound (dissolved in a PEG sea-water mixture). Sea lice inhibition (% of dead+damaged sea lice) was assessed after approximately 1 and 24 hours of continuous exposure in comparison to a negative (solvent) control group.
# [9] = test system: Rhipicephalus sanguineus or Haemaphysalis elliptica ticks; assay: Dog - efficacy against ticks; assay type: in vivo; conditions: for therapeutic efficacy against ticks (active = efficacy ≥80 percent): D2
# Experimental: (§2) Beagle dogs were infested (whole body) with 80 Ctenocephalides felis fleas and 50 Rhipicephalus sanguineus or Haemaphysalis elliptica ticks (sex ratio 1:1) two days before the treatment day (Day 0), and repeatedly thereafter. Dogs of treatment groups were treated with 10 mg/kg bodyweight of a test compound orally (compound weighed in gelatin capsule), topically (spot-on, DMA 92%/DEET 8%) or subcutaneously (PEG 200 90%/water for injection 10%). Dogs of the negative control group received only an empty gelatin capsule orally and the spot-on formulation excipients topically.
# (§3) Compounds with efficacy ≥80 percent were found active.
# Rhipicephalus microplus = assay: Cattle - efficacy against one-host tick; assay type: in vivo; conditions: 1 mg/kg pour on in Imwitor 988+Miglyol 840
# Experimental: Cattle were infested (whole body) with up to 3000 Rhipicephalus microplus larvae two or three times per week before and after the treatment day (Day 0). Cattle of treatment groups were treated subcutaneously or topically (spray or pour-on) at a dose of 1 mg/kg bodyweight of a test compound. As subcutaneous formulation either 2-pyrrolidon 50%/Tween 80 50% or NMP 60%/PEG300 40% was used. As topical formulation either a spray solution (DMF/Emulsifier 2%/tap water 98%) (Compound 4) or a DMA 92%/DEET 8% pour-on solution (all other compounds) or a pour-on solution containing Imwitor 988 (20%)+Miglyol 840 (QS) (Compound 453 and Compound 466) or a pour-on solution containing Miglyol 840 (QS) (Compound 453) was used. Cattle of the negative control group received only the formulation excipients of the respective administration route.
# Fully engorged female ticks dropping from cattle were collected daily after treatment and counted in treatment and control groups. Efficacy was expressed using the standard ADEQ analysis method (ADEQ calculation in accordance with WAAVP guidelines for evaluating the efficacy of acaricides against ticks on ruminants; Veterinary parasitology 136 (2006) 29-43). Compounds with efficacy ≥80 percent were found active/effective. Onset of efficacy means the first Day with efficacy ≥80 percent. Duration of efficacy means the last Day with efficacy ≥80 percent.
# [10] = test system: Ctenocephalides felis fleas; assay: Dog - efficacy against fleas; assay type: in vivo; conditions: for therapeutic efficacy against fleas (active = efficacy ≥80 percent): D2
# Experimental: as §2, §3
# [11] = 5 mg/kg subcutaneous, after 7 days
# [12] = 5 mg/kg, at least until Day 10, both administration routes (oral, subcutaneous)
smiles,measurement,setting,value
O=C(Nc1ncc(F)cc1F)c1cc(NC(=O)[C@H]2[C@H](c3ccc(F)c(Cl)c3)C2(Cl)Cl)ccc1Cl [Compound 89],"activity against bed bugs (≥80% inhibition, killed+damaged)","[1]; 5 mg/kg oral, Day 0",immediate activity
same,"activity against bed bugs (≥80% inhibition, killed+damaged)","[1]; 5 mg/kg subcutaneous, Day 0",immediate activity
same,"activity against tick nymphs (≥80% inhibition, killed+damaged)","[2]; 5 mg/kg oral, Day 0",immediate activity
same,"activity against tick nymphs (≥80% inhibition, killed+damaged)","[2]; 5 mg/kg subcutaneous, Day 0",immediate activity
same,inhibition at 1 ppm,[3],80%
same,therapeutic efficacy against juvenile sea lice (% reduction vs control),Lepeophtheirus salmonis [4],100%
same,inhibition at 49 µM,[5]; 49 μM,80%
same,inhibition at 388 µM,[5]; 388 μM,80%
same,inhibition at 100 ppm,[5]; 100 ppm,80%
same,inhibition in vivo at 5 mg/kg,Lepeophtheirus salmonis [6],100%
same,inhibition at 0.01 µM,[7],100%
same,EC50,[8],≤ 10 nM
O=C(Nc1cnc(F)cc1F)c1cc(NC(=O)[C@H]2[C@H](c3cc(Cl)cc(Cl)c3)C2(Cl)Cl)ccc1Cl [Compound 455],"activity against bed bugs (≥80% inhibition, killed+damaged)","[1]; 5 mg/kg oral, Day 0",immediate activity
same,"activity against bed bugs (≥80% inhibition, killed+damaged)","[1]; 5 mg/kg subcutaneous, Day 0",immediate activity
same,"activity against tick nymphs (≥80% inhibition, killed+damaged)","[2]; 5 mg/kg oral, Day 0",immediate activity
same,"activity against tick nymphs (≥80% inhibition, killed+damaged)","[2]; 5 mg/kg subcutaneous, Day 0",immediate activity
same,"duration of efficacy, subcutaneous compared with oral administration","[2]; 5 mg/kg, ticks and bed bugs",longer duration of efficacy
same,therapeutic efficacy against juvenile sea lice (% reduction vs control),Lepeophtheirus salmonis [4],100%
same,inhibition in vivo at 5 mg/kg,Lepeophtheirus salmonis [6],100%
same,inhibition at 0.01 µM,[7],100%
same,EC50,[8],≤ 10 nM
O=C(Nc1c(F)ccnc1F)c1cc(NC(=O)[C@H]2[C@H](c3cc(Cl)cc(Cl)c3)C2(Cl)Cl)ccc1Cl [Compound 456],"activity against bed bugs (≥80% inhibition, killed+damaged)","[1]; 5 mg/kg oral, Day 0",immediate activity
same,"activity against bed bugs (≥80% inhibition, killed+damaged)","[1]; 5 mg/kg subcutaneous, Day 0",immediate activity
same,"activity against tick nymphs (≥80% inhibition, killed+damaged)","[2]; 5 mg/kg oral, Day 0",immediate activity
same,"activity against tick nymphs (≥80% inhibition, killed+damaged)","[2]; 5 mg/kg subcutaneous, Day 0",immediate activity
same,prophylactic efficacy at re-infestation on Day 17 (% reduction vs control),Lepeophtheirus salmonis [4],80%
same,therapeutic efficacy against juvenile sea lice (% reduction vs control),Lepeophtheirus salmonis [4],100%
same,inhibition in vivo at 5 mg/kg,Lepeophtheirus salmonis [6],80%
same,inhibition at 0.01 µM,[7],100%
same,EC50,[8],≤ 10 nM
O=C(Nc1ncc(F)cn1)c1cc(NC(=O)[C@H]2[C@H](c3cc(Cl)cc(Cl)c3)C2(Cl)Cl)ccc1Cl [Compound 460],"activity against bed bugs (≥80% inhibition, killed+damaged)","[1]; 5 mg/kg oral, Day 0",immediate activity
same,"activity against bed bugs (≥80% inhibition, killed+damaged)","[1]; 5 mg/kg oral, after 7 days",activity
same,"activity against bed bugs (≥80% inhibition, killed+damaged)","[1]; 5 mg/kg subcutaneous, Day 0",immediate activity
same,"activity against bed bugs (≥80% inhibition, killed+damaged)",[1]; [11],activity
same,"activity against tick nymphs (≥80% inhibition, killed+damaged)","[2]; 5 mg/kg oral, Day 0",immediate activity
same,"activity against tick nymphs (≥80% inhibition, killed+damaged)","[2]; 5 mg/kg subcutaneous, Day 0",immediate activity
same,therapeutic efficacy against juvenile sea lice (% reduction vs control),Lepeophtheirus salmonis [4],100%
same,inhibition in vivo at 5 mg/kg,Lepeophtheirus salmonis [6],100%
same,inhibition at 0.01 µM,[7],100%
same,EC50,[8],≤ 10 nM
O=C(Nc1cnc(F)cc1F)c1cc(NC(=O)[C@H]2[C@H](c3cc(Cl)c(Cl)c(Cl)c3)C2(Cl)Cl)ccc1Cl [Compound 466],efficacy against ticks in dogs (conclusion),[9]; 10 mg/kg,therapeutic efficacy
same,therapeutic efficacy against ticks (active = efficacy ≥80 percent),[9]; 10 mg/kg oral,active
same,therapeutic efficacy against ticks (active = efficacy ≥80 percent),[9]; 10 mg/kg topical spot-on,active
same,"activity against bed bugs (≥80% inhibition, killed+damaged)","[1]; 5 mg/kg oral, Day 0",immediate activity
same,"activity against bed bugs (≥80% inhibition, killed+damaged)","[1]; 5 mg/kg oral, after 7 days",activity
same,"activity against bed bugs (≥80% inhibition, killed+damaged)","[1]; 5 mg/kg oral, after 10 days",activity
same,"activity against bed bugs (≥80% inhibition, killed+damaged)","[1]; 5 mg/kg oral, after 14 days",activity
same,"activity against bed bugs (≥80% inhibition, killed+damaged)","[1]; 5 mg/kg oral, after 17 days",activity
same,"activity against bed bugs (≥80% inhibition, killed+damaged)","[1]; 5 mg/kg subcutaneous, Day 0",immediate activity
same,"activity against bed bugs (≥80% inhibition, killed+damaged)",[1]; [11],activity
same,"activity against bed bugs (≥80% inhibition, killed+damaged)","[1]; 5 mg/kg subcutaneous, after 10 days",activity
same,"activity against bed bugs (≥80% inhibition, killed+damaged)","[1]; 5 mg/kg subcutaneous, after 14 days",activity
same,"activity against bed bugs (≥80% inhibition, killed+damaged)","[1]; 5 mg/kg subcutaneous, after 17 days",activity
same,effective to control bed bugs,[1]; [12],100%
same,duration of efficacy (last Day with efficacy ≥80 percent),Rhipicephalus microplus,87 days
same,onset of efficacy (first Day with efficacy ≥80 percent),Rhipicephalus microplus,1 days
same,"activity against tick nymphs (≥80% inhibition, killed+damaged)","[2]; 5 mg/kg oral, Day 0",immediate activity
same,"activity against tick nymphs (≥80% inhibition, killed+damaged)","[2]; 5 mg/kg oral, after 7 days",activity
same,"activity against tick nymphs (≥80% inhibition, killed+damaged)","[2]; 5 mg/kg oral, after 10 days",activity
same,"activity against tick nymphs (≥80% inhibition, killed+damaged)","[2]; 5 mg/kg oral, after 14 days",activity
same,"activity against tick nymphs (≥80% inhibition, killed+damaged)","[2]; 5 mg/kg subcutaneous, Day 0",immediate activity
same,"activity against tick nymphs (≥80% inhibition, killed+damaged)",[2]; [11],activity
same,effective to control ticks,[2]; [12],100%
same,therapeutic efficacy against juvenile sea lice (% reduction vs control),Lepeophtheirus salmonis [4],80%
same,efficacy against fleas in dogs (conclusion),[10]; 10 mg/kg,therapeutic efficacy
same,therapeutic efficacy against fleas (active = efficacy ≥80 percent),[10]; 10 mg/kg oral,active
same,therapeutic efficacy against fleas (active = efficacy ≥80 percent),[10]; 10 mg/kg topical spot-on,active
same,inhibition in vivo at 5 mg/kg,Lepeophtheirus salmonis [6],80%
same,inhibition at 0.1 µM,[7]; 100 nM in seawater,100%
same,EC50,[8],≤ 10 nM
